Reference: patent publication US11542255B2, “Sulfonylureas and sulfonylthioureas as NLRP3 inhibitors” (Inflazome Limited, priority 2017, dated 2023)
pIC50: −log10 of the molar value. Where a name gives a salt, the structure may show the parent alone.

How the values were obtained:
[1] = PK protocol, intravenous administration; type: in vivo, male Sprague Dawley rats; settings: male, Sprague Dawley, rat, plasma, dose (mg/kg); for Vd: read-out: Vdss
Procedure: Pharmacokinetic parameters were determined in male Sprague Dawley rats (Charles River, UK, 250-350 g; or Vital River Laboratory Animal Technology Co Ltd, Beijing, China, 7-9 weeks old). Animals were individually housed during the study and maintained under a 12 h light/dark cycle. Animals had free access to food and water except that some orally dosed animals were food deprived overnight prior to the study.
For intravenous administration, compounds were formulated as a solution in water or […] in 2 mL/kg dosing volume and administered via tail vein. For oral administration, compounds were formulated as a solution in water or DMSO:water [10:90] in 5 mL/kg dosing volume and administered orally.
Serial blood samples (about 120-300 μL) were taken from each animal at each of 8 time-points post dose (0.083, 0.25, 0.5, 1, 2, 4, 8 and 24 h) or at each of 12 time-points post dose (0.03, 0.1, 0.17, 0.25, 0.5, 1, 2, 4, 6, 8, 12 and 24 h) or pre-dose and at each of 9 time-points post dose (0.25, 0.5, 1, 2, 4, 6, 8, 12 and 24 h). Samples were held on ice for no longer than 30 minutes before centrifugation (10,000 rpm (8,385 g) for 3 minutes; or 5,696 rpm (3,0009 for 15 minutes) for plasma generation. Plasma was frozen on dry ice prior to boanalysis. PK parameters were generated from LC-MS/MS data using Dotmatics or Phoenix WinNonlin 6.3 software.

NLRP3 [2] = target: T1, NLRP3 (Homo sapiens, UniProt Q96P20); assay: Human whole blood IL1β release assay (LPS + nigericin, AlphaLisa IL-1β); type: cell-based; parameters: Human whole blood in Li-heparin tubes was obtained from healthy donors from a volunteer donor panel; from tissue; host or cells: human whole blood from healthy donors; settings: NLRP3 inhibitory activity, 1 μg/ml LPS, 10 μM nigericin, IL-1β release, read-out: HWB IC50
How it was run: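 Donor human whole blood (Li-heparin) was primed with 1 μg/mL LPS while incubated with compound (8-point half-log, 10 μM top, 0.1% DMSO) for 3 h at 37° C., then stimulated with 10 μM nigericin for 1 h. Supernatant IL-1β measured by AlphaLISA; IC50 from 4-parameter nonlinear fit.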

NLRP3 [3] = target: T1, NLRP3; assay: THP-1 cells pyroptosis assay (LPS + nigericin, resazurin readout); type: cell-based; parameters: Seed THP-1 cells (25,000 cells/well) containing 1.0 μg/ml LPS in 40 μl of RPMI medium; host or cells: THP-1 cells; settings: NLRP3 inhibitory activity, 1.0 μg/ml LPS, 5 μM nigericin
How it was run: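 LPS-primed (1 μg/ml) THP-1 cells, 25,000/well in serum-free RPMI, given compound (8-point half-log, 10 μM top; 0.1% DMSO) for 3 h at 37 °C, then nigericin 5 μM for 1 h. Viability by resazurin (100 μM, 1-2 h), Ex 560/Em 590 nm; IC50 from 4-parameter variable-slope fit.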

T1 sequence (Q96P20 whole entry): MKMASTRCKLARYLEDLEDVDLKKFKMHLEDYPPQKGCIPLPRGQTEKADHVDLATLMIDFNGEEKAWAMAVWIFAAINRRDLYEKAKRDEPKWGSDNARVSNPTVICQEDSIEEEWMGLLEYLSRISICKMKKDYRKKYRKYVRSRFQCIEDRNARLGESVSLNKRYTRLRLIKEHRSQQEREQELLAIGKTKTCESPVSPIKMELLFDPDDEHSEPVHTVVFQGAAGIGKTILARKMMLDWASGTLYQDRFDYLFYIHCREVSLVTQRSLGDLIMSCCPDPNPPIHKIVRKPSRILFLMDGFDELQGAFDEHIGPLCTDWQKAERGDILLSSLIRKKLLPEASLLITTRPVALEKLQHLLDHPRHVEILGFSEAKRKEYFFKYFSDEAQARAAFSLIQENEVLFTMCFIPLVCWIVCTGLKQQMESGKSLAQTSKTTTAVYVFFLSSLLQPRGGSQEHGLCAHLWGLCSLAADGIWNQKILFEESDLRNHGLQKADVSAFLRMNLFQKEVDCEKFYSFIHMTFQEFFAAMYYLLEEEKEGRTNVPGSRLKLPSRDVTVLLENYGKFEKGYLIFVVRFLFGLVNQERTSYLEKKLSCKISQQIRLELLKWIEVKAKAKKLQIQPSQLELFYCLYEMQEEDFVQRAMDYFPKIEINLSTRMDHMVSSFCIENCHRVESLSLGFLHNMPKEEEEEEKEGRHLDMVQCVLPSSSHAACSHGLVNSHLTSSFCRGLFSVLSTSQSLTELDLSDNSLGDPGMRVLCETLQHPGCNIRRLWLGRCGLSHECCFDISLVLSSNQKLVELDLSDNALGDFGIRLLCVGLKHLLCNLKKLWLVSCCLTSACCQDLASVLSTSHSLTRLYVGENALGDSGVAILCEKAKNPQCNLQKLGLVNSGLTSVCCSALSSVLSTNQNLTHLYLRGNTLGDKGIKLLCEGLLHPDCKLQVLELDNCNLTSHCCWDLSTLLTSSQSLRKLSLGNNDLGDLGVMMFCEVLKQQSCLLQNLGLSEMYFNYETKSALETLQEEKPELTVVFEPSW

SMILES	AUC [1] [ng·h/mL]	clearance [1] [mL/min/kg]	half-life [1] [h]	Vd [1] [L/kg]	pIC50 (NLRP3 [2])	pIC50 (NLRP3 [3])
Cn1nc(S(=O)(=O)NC(=O)Nc2c3c(cc4c2CCC4)CCC3)cc1CN1CCC1 [Example 86, 5-(Azetidin-1-ylmethyl)-N-((1,2,3,5,6,7-hexahydro-s-indacen-4-yl)carbamoyl)-1-methyl-1H-pyrazole-3-sulfonamide, Sodium Salt]	4400	3.8	3.2	0.48	5.80 to 6.10	6.19 to 6.80
CCC(c1cc(S(=O)(=O)NC(=O)Nc2c3c(cc4c2CCC4)CCC3)nn1C1CC1)N(C)C (centres unmarked) [Example 24, 1-Cyclopropyl-5-(1-(dimethylamino)propyl)-N-((1,2,3,5,6,7-hexahydro-s-indacen-4-yl)carbamoyl)-1H-pyrazole-3-sulfonamide]	1280	13	1	0.84	> 6.40	> 7.40
CN(C)CCn1nc(S(=O)(=O)NC(=O)Nc2c3c(cc4c2CCC4)CCC3)cc1C(C)(C)O [Example 4, 1-(2-(Dimethylamino)ethyl)-N-((1,2,3,5,6,7-hexahydro-s-indacen-4-yl)carbamoyl)-5-(2-hydroxypropan-2-yl)-1H-pyrazole-3-sulfonamide]	3780	4.4	1.6	0.12	6.10 to 6.40	6.80 to 7.40
O=C(Nc1c2c(cc3c1CCC3)CCC2)NS(=O)(=O)c1cc(CN2CCC2)n(C2CC2)n1 [Example 30, 5-(Azetidin-1-ylmethyl)-1-cyclopropyl-N-((1,2,3,5,6,7-hexahydro-s-indacen-4-yl)carbamoyl)-1H-pyrazole-3-sulfonamide]	6210	2.7	2.8	0.53	6.10 to 6.40	6.80 to 7.40
CCN(C)Cc1cc(S(=O)(=O)NC(=O)Nc2c(C(C)C)cc(F)cc2C(C)C)nn1C [Example 89, 5-((Ethyl(methyl)amino)methyl)-N-((4-fluoro-2,6-diisopropylphenyl)carbamoyl)-1-methyl-1H-pyrazole-3-sulfonamide, sodium Salt]	1020	16.3	1.4	1.4	> 6.40	6.19 to 6.80
CCC(c1cc(S(=O)(=O)NC(=O)Nc2c3c(cc4c2CCC4)CCC3)nn1C(C)C)N(C)C (centres unmarked) [Example 63, 5-(1-(Dimethylamino)propyl)-N-((1,2,3,5,6,7-hexahydro-s-indacen-4-yl)carbamoyl)-1-isopropyl-1H-pyrazole-3-sulfonamide]	4010	4.2	0.8	0.25	> 6.40	> 7.40
CC(c1cc(S(=O)(=O)NC(=O)Nc2c3c(cc4c2CCC4)CCC3)nn1C(C)C)N(C)C (centres unmarked) [Example 73, 5-(1-(Dimethylamino)ethyl)-N-((1,2,3,5,6,7-hexahydro-s-indacen-4-yl)carbamoyl)-1-isopropyl-1H-pyrazole-3-sulfonamide]	4250	4.3	3.5	0.51	> 6.40	> 7.40
CCC(c1cc(S(=O)(=O)NC(=O)Nc2c3c(cc4c2CCC4)CCC3)nn1C)N(C)C (single isomer, unassigned; enantiomer 2) [Example 72, 5-(1-(Dimethylamino)propyl)-N-((1,2,3,5,6,7-hexahydro-s-indacen-4-yl)carbamoyl)-1-methyl-1H-pyrazole-3-sulfonamide, Enantiomer 2]	2780	8.5	2.4	0.51	> 6.40	> 7.40
CCn1nc(S(=O)(=O)NC(=O)Nc2c3c(cc4c2CCC4)CCC3)cc1CN1CCC1 [Example 49, 5-(Azetidin-1-ylmethyl)-1-ethyl-N-((1,2,3,5,6,7-hexahydro-s-indacen-4-yl)carbamoyl)-1H-pyrazole-3-sulfonamide]	6630	2.7	2.2	0.34	> 6.40	6.80 to 7.40
CCn1nc(S(=O)(=O)NC(=O)Nc2c3c(cc4c2CCC4)CCC3)cc1CN(C)C [Example 52, 5-((Dimethylamino)methyl)-1-ethyl-N-((1,2,3,5,6,7-hexahydro-s-indacen-4-yl)carbamoyl)-1H-pyrazole-3-sulfonamide]	7970	3.5	1.5	0.39	> 6.40	> 7.40
Cn1nc(S(=O)(=O)[N-]C(=O)Nc2c3c(cc4c2CCC4)CCC3)cc1C[N+](C)(C)C [Example 44, ((1,2,3,5,6,7-Hexahydro-s-indacen-4-yl)carbamoyl)((1-methyl-5-((trimethylammonio)methyl)-1H-pyrazol-3-yl)sulfonyl)amide]	3120	5.3	1.2	0.21	> 6.40	5.59 to 6.19
CC(C)c1cc(F)cc(C(C)C)c1NC(=O)NS(=O)(=O)c1cc(CN(C)C)n(C)n1 [Example 92, 5-((Dimethylamino)methyl)-N-((4-fluoro-2,6-diisopropyl-phenyl)carbamoyl)-1-methyl-1H-pyrazole-3-sulfonamide, Sodium Salt]	1280	13.1	3.2	2.19	> 6.40	6.19 to 6.80
CC(c1cc(S(=O)(=O)NC(=O)Nc2c3c(cc4c2CCC4)CCC3)nn1C)N1CCC1 (single isomer, unassigned; enantiomer 2) [Example 27, 5-(1-(Azetidin-1-yl)ethyl)-N-((1,2,3,5,6,7-hexahydro-s-indacen-4-yl)carbamoyl)-1-methyl-1H-pyrazole-3-sulfonamide, Sodium Salt (Enantiomer 2)]	3900	4.3	1.1	0.33	> 6.40	6.80 to 7.40
CC(C)c1cc(F)cc(C(C)C)c1NC(=O)NS(=O)(=O)c1cc(CN2CCC2)n(C)n1 [Example 88, 5-(Azetidin-1-ylmethyl)-N-((4-fluoro-2,6-diisopropylphenyl)carbamoyl)-1-methyl-1H-pyrazole-3-sulfonamide, Sodium Salt]	1500	11.2	4.3	1.64	> 6.40	6.19 to 6.80
CCN(C)Cc1cc(S(=O)(=O)NC(=O)Nc2c3c(cc4c2CCC4)CCC3)nn1C [Example 84, 5-((Ethyl(methyl)amino)methyl)-N-((1,2,3,5,6,7-hexahydro-s-indacen-4-yl)carbamoyl)-1-methyl-1H-pyrazole-3-sulfonamide]	2490	6.7	1	0.47	6.10 to 6.40	6.80 to 7.40
CC(c1cc(S(=O)(=O)NC(=O)Nc2c3c(cc4c2CCC4)CCC3)nn1C)N(C)C (centres unmarked) [Example 77, 5-(1-(Dimethylamino)ethyl)-N-((1,2,3,5,6,7-hexahydro-s-indacen-4-yl)carbamoyl)-1-methyl-1H-pyrazole-3-sulfonamide]	4440	3.8	3.5	0.38	> 6.40	> 7.40
CC(c1cc(S(=O)(=O)NC(=O)Nc2c3c(cc4c2CCC4)CCC3)nn1C1CC1)N1CCC1 (centres unmarked) [Example 25, 5-(˜(Azetidin-1-yl)ethyl)-1-cyclopropyl-N-((1,2,3,5,6,7-hexahydro-s-indacen-4-yl)carbamoyl)-1H-pyrazole-3-sulfonamide]	3460	10	1	0.58	> 6.40	> 7.40
CC(C)n1nc(S(=O)(=O)NC(=O)Nc2c3c(cc4c2CCC4)CCC3)cc1C1(N(C)C)CC1 [Example 32, 5-(1-(Dimethylamino)cyclopropyl)-N-((1,2,3,5,6,7-hexahydro-s-indacen-4-yl)carbamoyl)-1-isopropyl-1H-pyrazole-3-sulfonamide]					6.10 to 6.40	6.80 to 7.40
